The record followed here is patent US9580442B2, “Tricyclic heterocyclic compounds as phosphoinositide 3-kinase inhibitors” (Karus Therapeutics Limited, priority 2009, dated 2017).

Where two headings read alike, the source gives them in different places.

The test system of one test is IL-17F. Description: Inhibition of IL-17F production from anti-CD3-stimulated hPBMCs. Type of test: cell-based, human. The following applies: for inhibition at 1 µM: Homo sapiens, hPBMCs stimulated with anti-CD3, read-out: % Inhibition of Proinflammatory Cytokine Production at 1 uM, IL-17F. The protocol: (§1) 2) Anti-Inflammatory Activity: Inhibition of the Production of Pro-Inflammatory Cytokines from Stimulated Human Peripheral Blood Mononuclear Cells (hPBMCs)
(§2) Compounds were tested at a concentration of 1 uM for cytokine release inhibition in hPBMCs stimulated with LPS (TNFα), PHA (IFNγ) and anti-CD3 (IL-17A, IL-17F, IL-21, IL-23): […]

The next test has as its target PI3K p110α (Homo sapiens (Human), UniProt P42336). Description: PI3K isoform biochemical assay, p110α.
The subject of the next test is IL-21. Description: Inhibition of IL-21 production from anti-CD3-stimulated hPBMCs. It counts as cell-based, human. To be noted: for inhibition at 1 µM: Homo sapiens, hPBMCs stimulated with anti-CD3, read-out: % Inhibition of Proinflammatory Cytokine Production at 1 uM, IL-21. The protocol:
as §1, §2

Test [1] concerns Rheumatoid Arthritis Synovial Fibroblast (RASF). Description: In vitro inhibition of rheumatoid arthritis synovial fibroblast (RASF) proliferation. It counts as cell-based.
A further test concerns the target PI3K p110δ (Homo sapiens (Human), UniProt O00329). Description: PI3K isoform biochemical assay, p110δ.
For a further test, the target named is PI3K p110β (Homo sapiens (Human), UniProt P42338). Description: PI3K isoform biochemical assay, p110β.
Another test relates to PC3 (Prostate Tumour). Description: In vitro inhibition of tumour cell proliferation, PC3. Type of test: cell-based.
A further test has as its system A549 (Lung Tumour). Description: In vitro inhibition of tumour cell proliferation, A549. It counts as cell-based.
The subject of a further test is MCF7 (Breast Tumour). Description: In vitro inhibition of tumour cell proliferation, MCF7. Type of test: cell-based.
For a further test, the system named is IL-23. Description: Inhibition of IL-23 production from anti-CD3-stimulated hPBMCs. Type of test: cell-based, human. To be noted: for inhibition at 1 µM: Homo sapiens, hPBMCs stimulated with anti-CD3, read-out: % Inhibition of Proinflammatory Cytokine Production at 1 uM, IL-23. The method, then:
as §1, §2

The target of the next test is PI3K p110γ (Homo sapiens (Human), UniProt P48736). Description: PI3K isoform biochemical assay, p110γ.
For another test, the system named is IL-17A. Description: Inhibition of IL-17A production from anti-CD3-stimulated hPBMCs. Type of test: cell-based, human. To be noted: for inhibition at 1 µM: Homo sapiens, hPBMCs stimulated with anti-CD3, read-out: % Inhibition of Proinflammatory Cytokine Production at 1 uM, IL-17A. The method, then:
as §1, §2

For a further test, the system named is IFNγ. Description: Inhibition of IFNγ production from PHA-stimulated hPBMCs. It counts as cell-based, human. The following applies: hPBMCs stimulated with PHA; for inhibition at 1 µM: Homo sapiens, read-out: % Inhibition of Proinflammatory Cytokine Production at 1 uM, IFNγ. The protocol: as §1, §2
A further test has as its system TNFα. Description: Inhibition of TNFα production from LPS-stimulated hPBMCs. Type of test: cell-based, human. To be noted: hPBMCs stimulated with LPS; for inhibition at 1 µM: Homo sapiens, read-out: % Inhibition of Proinflammatory Cytokine Production at 1 uM, TNFα. The protocol:
as §1, §2

[2] abbreviates: hPBMCs stimulated with anti-CD3.

PI3K p110α, sequence (P42336 whole entry, canonical isoform): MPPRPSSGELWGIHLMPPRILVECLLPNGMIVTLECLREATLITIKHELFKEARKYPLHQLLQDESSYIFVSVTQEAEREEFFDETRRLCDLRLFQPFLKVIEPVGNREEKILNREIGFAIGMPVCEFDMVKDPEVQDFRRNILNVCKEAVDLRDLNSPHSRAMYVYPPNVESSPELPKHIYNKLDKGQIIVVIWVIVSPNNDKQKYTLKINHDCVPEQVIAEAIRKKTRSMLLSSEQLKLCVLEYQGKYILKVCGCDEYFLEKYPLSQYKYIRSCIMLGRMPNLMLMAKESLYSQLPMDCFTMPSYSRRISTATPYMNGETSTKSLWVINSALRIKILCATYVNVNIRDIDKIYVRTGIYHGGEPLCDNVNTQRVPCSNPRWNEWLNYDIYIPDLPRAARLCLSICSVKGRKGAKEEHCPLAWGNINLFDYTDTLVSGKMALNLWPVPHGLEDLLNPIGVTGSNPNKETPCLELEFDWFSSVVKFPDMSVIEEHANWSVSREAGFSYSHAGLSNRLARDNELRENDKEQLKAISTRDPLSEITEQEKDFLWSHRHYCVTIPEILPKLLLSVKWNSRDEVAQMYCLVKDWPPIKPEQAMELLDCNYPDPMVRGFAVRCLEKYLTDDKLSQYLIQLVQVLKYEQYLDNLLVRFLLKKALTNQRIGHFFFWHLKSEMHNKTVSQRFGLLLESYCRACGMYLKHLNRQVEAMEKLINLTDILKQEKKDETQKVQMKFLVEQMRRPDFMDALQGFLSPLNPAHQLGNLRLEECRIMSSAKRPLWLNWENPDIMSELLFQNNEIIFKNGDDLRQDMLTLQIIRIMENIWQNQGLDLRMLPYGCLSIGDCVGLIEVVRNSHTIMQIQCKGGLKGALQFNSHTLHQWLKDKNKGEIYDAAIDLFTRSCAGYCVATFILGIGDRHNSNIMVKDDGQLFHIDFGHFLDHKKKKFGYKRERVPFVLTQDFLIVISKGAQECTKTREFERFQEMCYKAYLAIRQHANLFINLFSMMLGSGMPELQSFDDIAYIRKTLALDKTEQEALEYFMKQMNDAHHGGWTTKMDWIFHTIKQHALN
PI3K p110α, sequence (P27986 whole entry partner, canonical isoform): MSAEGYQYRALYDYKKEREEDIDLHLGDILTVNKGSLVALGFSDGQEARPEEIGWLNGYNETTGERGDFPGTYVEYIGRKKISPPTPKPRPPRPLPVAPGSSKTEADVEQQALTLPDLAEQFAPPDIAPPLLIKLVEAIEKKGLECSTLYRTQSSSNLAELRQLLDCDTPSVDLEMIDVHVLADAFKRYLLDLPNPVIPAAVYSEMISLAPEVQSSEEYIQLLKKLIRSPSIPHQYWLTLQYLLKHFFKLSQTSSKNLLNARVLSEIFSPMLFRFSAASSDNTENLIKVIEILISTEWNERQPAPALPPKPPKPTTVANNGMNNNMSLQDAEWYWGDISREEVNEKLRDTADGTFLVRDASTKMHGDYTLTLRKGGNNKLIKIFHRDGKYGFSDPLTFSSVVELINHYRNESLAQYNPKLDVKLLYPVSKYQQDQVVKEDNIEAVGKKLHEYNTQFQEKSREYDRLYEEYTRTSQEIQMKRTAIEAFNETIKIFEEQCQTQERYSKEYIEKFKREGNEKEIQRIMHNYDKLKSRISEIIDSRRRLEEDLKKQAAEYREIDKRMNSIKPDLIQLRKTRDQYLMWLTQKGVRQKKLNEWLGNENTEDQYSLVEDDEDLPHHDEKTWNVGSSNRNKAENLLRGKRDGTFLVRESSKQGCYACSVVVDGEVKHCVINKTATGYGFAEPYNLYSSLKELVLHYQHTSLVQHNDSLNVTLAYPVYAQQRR
PI3K p110β, sequence (P42338 whole entry, canonical isoform): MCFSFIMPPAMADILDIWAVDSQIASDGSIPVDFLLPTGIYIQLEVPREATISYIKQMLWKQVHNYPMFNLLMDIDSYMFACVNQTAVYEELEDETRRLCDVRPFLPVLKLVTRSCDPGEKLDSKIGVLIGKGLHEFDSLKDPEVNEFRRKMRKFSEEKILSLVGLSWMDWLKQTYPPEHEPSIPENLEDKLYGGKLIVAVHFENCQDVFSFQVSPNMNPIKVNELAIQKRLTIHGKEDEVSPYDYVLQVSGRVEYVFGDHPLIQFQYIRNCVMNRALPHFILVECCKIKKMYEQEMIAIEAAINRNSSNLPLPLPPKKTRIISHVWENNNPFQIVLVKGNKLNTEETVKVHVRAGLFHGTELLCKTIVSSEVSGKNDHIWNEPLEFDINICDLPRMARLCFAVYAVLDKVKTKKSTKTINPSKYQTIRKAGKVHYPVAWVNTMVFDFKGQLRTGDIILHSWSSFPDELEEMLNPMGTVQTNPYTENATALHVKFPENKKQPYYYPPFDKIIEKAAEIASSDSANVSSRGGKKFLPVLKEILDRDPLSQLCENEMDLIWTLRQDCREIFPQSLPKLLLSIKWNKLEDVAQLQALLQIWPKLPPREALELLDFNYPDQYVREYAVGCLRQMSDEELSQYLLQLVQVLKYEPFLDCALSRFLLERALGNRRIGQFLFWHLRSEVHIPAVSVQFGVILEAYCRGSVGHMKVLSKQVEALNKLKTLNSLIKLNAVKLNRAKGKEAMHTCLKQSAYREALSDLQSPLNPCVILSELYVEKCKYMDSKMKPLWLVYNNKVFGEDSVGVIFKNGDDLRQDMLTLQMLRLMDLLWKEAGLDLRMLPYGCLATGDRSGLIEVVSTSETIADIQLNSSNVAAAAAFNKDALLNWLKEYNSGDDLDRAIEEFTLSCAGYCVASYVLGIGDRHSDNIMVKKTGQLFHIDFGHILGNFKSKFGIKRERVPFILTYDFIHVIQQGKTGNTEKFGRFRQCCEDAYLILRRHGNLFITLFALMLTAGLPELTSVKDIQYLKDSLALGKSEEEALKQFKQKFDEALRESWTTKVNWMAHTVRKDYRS
PI3K p110β, sequence (P27986 whole entry partner, canonical isoform): as the sequence (P27986 whole entry partner, canonical isoform) above
PI3K p110δ, sequence (O00329 whole entry, canonical isoform): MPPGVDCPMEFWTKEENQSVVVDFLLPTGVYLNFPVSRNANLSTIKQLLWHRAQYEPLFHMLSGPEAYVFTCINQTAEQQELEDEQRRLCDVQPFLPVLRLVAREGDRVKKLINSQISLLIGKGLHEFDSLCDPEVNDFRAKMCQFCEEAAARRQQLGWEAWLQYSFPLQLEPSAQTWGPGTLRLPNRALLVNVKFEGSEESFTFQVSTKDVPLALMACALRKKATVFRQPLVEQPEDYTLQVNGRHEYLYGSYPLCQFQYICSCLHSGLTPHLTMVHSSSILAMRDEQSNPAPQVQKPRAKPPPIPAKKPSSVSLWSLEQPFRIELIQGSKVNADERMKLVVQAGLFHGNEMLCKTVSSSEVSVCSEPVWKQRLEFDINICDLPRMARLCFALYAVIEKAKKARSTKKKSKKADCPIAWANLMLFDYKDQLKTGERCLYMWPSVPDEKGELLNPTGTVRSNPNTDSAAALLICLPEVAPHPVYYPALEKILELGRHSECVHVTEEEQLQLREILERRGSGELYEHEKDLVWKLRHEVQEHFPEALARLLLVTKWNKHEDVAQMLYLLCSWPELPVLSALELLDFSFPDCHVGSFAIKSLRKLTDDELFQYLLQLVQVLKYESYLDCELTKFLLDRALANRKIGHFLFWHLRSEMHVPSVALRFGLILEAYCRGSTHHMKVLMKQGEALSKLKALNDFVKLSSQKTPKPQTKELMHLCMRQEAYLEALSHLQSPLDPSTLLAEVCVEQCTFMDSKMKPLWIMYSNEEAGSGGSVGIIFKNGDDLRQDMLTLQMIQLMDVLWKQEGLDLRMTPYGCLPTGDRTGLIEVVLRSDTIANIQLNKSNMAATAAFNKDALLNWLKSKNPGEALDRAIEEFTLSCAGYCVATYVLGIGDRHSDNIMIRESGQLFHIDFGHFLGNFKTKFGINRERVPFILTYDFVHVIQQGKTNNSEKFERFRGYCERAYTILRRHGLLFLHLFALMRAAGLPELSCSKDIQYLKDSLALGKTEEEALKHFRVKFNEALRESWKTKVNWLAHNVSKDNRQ
PI3K p110δ, sequence (P27986 whole entry partner, canonical isoform): as the sequence (P27986 whole entry partner, canonical isoform) above
PI3K p110γ, sequence (P48736 whole entry, canonical isoform): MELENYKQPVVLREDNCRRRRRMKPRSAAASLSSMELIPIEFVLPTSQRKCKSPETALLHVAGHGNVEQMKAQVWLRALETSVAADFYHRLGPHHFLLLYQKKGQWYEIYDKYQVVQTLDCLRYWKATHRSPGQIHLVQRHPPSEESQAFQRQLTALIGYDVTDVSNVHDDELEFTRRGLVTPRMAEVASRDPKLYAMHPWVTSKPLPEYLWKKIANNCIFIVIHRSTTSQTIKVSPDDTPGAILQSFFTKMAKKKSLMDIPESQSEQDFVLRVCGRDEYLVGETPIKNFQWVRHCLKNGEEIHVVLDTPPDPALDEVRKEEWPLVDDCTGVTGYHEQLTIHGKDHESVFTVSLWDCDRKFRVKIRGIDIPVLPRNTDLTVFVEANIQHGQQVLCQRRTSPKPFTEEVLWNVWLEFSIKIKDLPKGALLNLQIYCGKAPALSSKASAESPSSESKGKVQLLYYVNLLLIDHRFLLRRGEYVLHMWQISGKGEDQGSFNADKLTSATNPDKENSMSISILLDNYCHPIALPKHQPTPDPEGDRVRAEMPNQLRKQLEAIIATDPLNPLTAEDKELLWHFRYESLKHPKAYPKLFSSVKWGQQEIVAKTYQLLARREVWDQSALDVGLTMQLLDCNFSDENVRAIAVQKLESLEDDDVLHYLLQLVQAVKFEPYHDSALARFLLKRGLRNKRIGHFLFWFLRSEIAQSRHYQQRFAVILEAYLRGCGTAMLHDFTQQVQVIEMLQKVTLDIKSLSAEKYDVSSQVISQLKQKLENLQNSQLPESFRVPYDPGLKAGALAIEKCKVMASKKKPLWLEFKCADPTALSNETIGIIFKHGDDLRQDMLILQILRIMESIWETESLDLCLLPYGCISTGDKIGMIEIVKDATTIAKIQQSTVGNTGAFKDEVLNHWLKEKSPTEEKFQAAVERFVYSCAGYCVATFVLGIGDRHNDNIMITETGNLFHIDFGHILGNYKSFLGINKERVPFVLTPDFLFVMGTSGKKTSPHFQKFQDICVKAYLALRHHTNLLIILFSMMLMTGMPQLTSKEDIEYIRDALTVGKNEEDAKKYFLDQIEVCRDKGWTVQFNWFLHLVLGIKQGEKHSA

As to “(E)-1-(4-Methyl-piperazin-1-yl)-3-[4-morpholin-4-yl-2-(1H-pyrrolo[2,3-b]pyridin-4-yl)-pyrido[3′,2′:4,5]furo[3,2-d]pyrimidin-8-yl]-propenone”, the “% Inhibition of Proinflammatory Cytokine Production at 1 uM, IL-17F” value with IL-17F (setting [2]) amounted to 74%. For the same compound, the half-maximal inhibitory concentration (IC50) against PI3K p110α turned out to be 127 nM; in [1] it was 2240 nM; against PI3K p110δ, 6 nM; against PI3K p110β, 109 nM; in the test on PC3 (Prostate Tumour), 7290 nM; with A549 (Lung Tumour) it was 1150 nM. Moreover, the half-maximal inhibitory concentration (IC50) with MCF7 (Breast Tumour) is 215 nM; against PI3K p110γ it was 269 nM. Also, the “% Inhibition of Proinflammatory Cytokine Production at 1 uM, IL-21” value in the test with IL-21 (setting [2]) is 82%. The “% Inhibition of Proinflammatory Cytokine Production at 1 uM, IL-23” value in the test with IL-23 (setting [2]) was found to be 93%. In addition, in the test on IL-17A (setting [2]), the “% Inhibition of Proinflammatory Cytokine Production at 1 uM, IL-17A” value is 77%. In addition, the “% Inhibition of Proinflammatory Cytokine Production at 1 uM, IFNγ” value in the test on IFNγ was 67%. Besides, the “% Inhibition of Proinflammatory Cytokine Production at 1 uM, TNFα” value in the test with TNFα is 74%.

Take `N#CCCN1CCN(Cc2cnc3oc4c(N5CCOCC5)nc(-c5cccc6[nH]ccc56)nc4c3c2)CC1` [R, 3-{4-[2-(1H-Indol-4-yl)-4-morpholin-4-yl-pyrido[3′,2′:4,5]furo[3,2-d]pyrimidin-8-ylmethyl]-piperazin-1-yl}-propionitrile]: the IC50 on PI3K p110α was 597 nM; against PI3K p110δ, 22 nM; against PI3K p110β it was 131 nM; against PI3K p110γ, 2540 nM.

For `c1cc(-c2nc(N3CCOCC3)c3oc4ncc(N5CCOCC5)cc4c3n2)c2cc[nH]c2c1` [M, 2-(1H-Indol-4-yl)-4,8-di-morpholin-4-yl-pyrido[3′,2′:4,5]furo[3,2-d]pyrimidine], the IC50 at PI3K p110α stood at 96 nM; in [1] (Fibroblast), 1610 nM; at PI3K p110δ, 10 nM; on PI3K p110β, 25 nM; at PI3K p110γ, 219 nM.

As for `c1cc(-c2nc(N3CCOCC3)c3oc4ncc(CN5CCCCC5)cc4c3n2)c2cc[nH]c2c1` [Compound I, 2-(1H-Indol-4-yl)-4-morpholin-4-yl-8-piperidin-1-ylmethyl-pyrido[3′,2′:4,5]furo[3,2d]pyrimidine], the inhibition at 1 µM with IL-17F is 95%; in the test with IL-21, 96%; with IL-23 it was 90%; in the test with IL-17A, 95%; in the test on IFNγ, 80%; in the test on TNFα it was 61%. In test [1] (Fibroblast), the IC50 was 5720 nM.

Regarding `c1cnc2oc3c(N4CCOCC4)nc(-c4ccnc5[nH]ccc45)nc3c2c1` [D, 4-Morpholin-4-yl-2-(1H-pyrrolo[2,3-b]pyridin-4-yl)-pyrido[3′,2′:4,5]furo[3,2-d]pyrimidine], the IC50 on PI3K p110α stood at 104 nM; against PI3K p110δ, 33 nM; against PI3K p110β, 57 nM; against PI3K p110γ, 103 nM.

Turning to `CN(C)C(=O)/C=C/c1cnc2oc3c(N4CCOCC4)nc(-c4cccc5[nH]ccc45)nc3c2c1` [G, (E)-3-[2-(1H-Indol-4-yl)-4-morpholin-4-yl-pyrido[3′,2′:4,5]furo[3,2-d]pyrimidin-8-yl]-N,N-dimethylacrylamide], the IC50 on PI3K p110α was 223 nM; at PI3K p110δ, 5 nM; against PI3K p110β, 83 nM; in the test with PC3 (Prostate Tumour) (Homo sapiens, PC-3), 3770 nM; in the test with A549 (Lung Tumour) (Homo sapiens) it was 186 nM; in the test on MCF7 (Breast Tumour) (Homo sapiens), 127 nM. Moreover, on PI3K p110γ, half-maximal inhibition (IC50) was put at 1660 nM.

`c1cc(-c2nc(N3CCOCC3)c3sc4ncccc4c3n2)c2cc[nH]c2c1` [A, 2-(1H-Indol-4-yl)-4-morpholin-4-yl-pyrido[3′,2′:4,5]thieno[3,2-d]pyrimidine]: the IC50 was found to be 54 nM against PI3K p110α; 1350 nM in [1] (Fibroblast); 15 nM on PI3K p110δ; 137 nM against PI3K p110β; 3010 nM with PC3 (Prostate Tumour) (Homo sapiens, PC-3); 151 nM with A549 (Lung Tumour) (Homo sapiens). The IC50 amounted to 331 nM in the test on MCF7 (Breast Tumour) (Homo sapiens) and 873 nM on PI3K p110γ.

On to `CN(C)Cc1cnc2oc3c(N4CCOCC4)nc(-c4cccc5[nH]ccc45)nc3c2c1` [H, [2-(1H-Indol-4-yl)-4-morpholin-4-yl-pyrido[3′,2′:4,5]furo[3,2-d]pyrimidin-8-ylmethyl]-dimethyl-amine], for which the inhibition at 1 µM in the test with IL-17F was 96%; in the test with IL-21, 96%; in the test on IL-23, 93%; with IL-17A, 99%; in the test with IFNγ, 87%; with TNFα it was 75%. Further, the IC50 against PI3K p110α was 398 nM; in test [1] (Fibroblast) it was 1900 nM; against PI3K p110δ, 6 nM; against PI3K p110β, 63 nM; in the test with PC3 (Prostate Tumour) (Homo sapiens, PC-3) it was 3030 nM; with A549 (Lung Tumour) (Homo sapiens) it was 466 nM. Moreover, the IC50 in the test on MCF7 (Breast Tumour) (Homo sapiens) stood at 165 nM; against PI3K p110γ, 213 nM.

In the case of `CN1CCN(Cc2cnc3oc4c(N5CCOCC5)nc(-c5cccc6[nH]ccc56)nc4c3c2)CC1` [J, 2-(1H-Indol-4-yl)-8-(4-methyl-piperazin-1-ylmethyl)-4-morpholin-4-yl-pyrido[3′,2′:4,5]furo[3,2-d]pyrimidine], the IC50 on PI3K p110α came out at 680 nM; against PI3K p110δ, 26 nM; against PI3K p110β, 277 nM; at PI3K p110γ, 1040 nM.

Consider `c1cc(-c2nc(N3CCOCC3)c3oc4ncc(CN5CCOCC5)cc4c3n2)c2cc[nH]c2c1` [K, 2-(1H-Indol-4-yl)-4-morpholin-4-yl-8-morpholin-4-ylmethyl-pyrido[3′,2′:4,5]furo[3,2-d]pyrimidine], for which the concentration for half-maximal inhibition (IC50) amounted to 355 nM against PI3K p110α; 3020 nM in [1] (Fibroblast); 6 nM against PI3K p110δ; 64 nM against PI3K p110β; 3340 nM in the test with PC3 (Prostate Tumour) (Homo sapiens, PC-3); 682 nM with A549 (Lung Tumour) (Homo sapiens). Further, the IC50 came to 352 nM in the test on MCF7 (Breast Tumour) (Homo sapiens) and 2610 nM at PI3K p110γ.

For the compound `c1cc(-c2nc(N3CCOCC3)c3oc4ncccc4c3n2)c2cc[nH]c2c1` [B, 2-(1H-Indol-4-yl)-4-morpholin-4-yl-pyrido[3′,2′:4,5]furo[3,2-d]pyrimidine], the inhibition at 1 µM was determined as 96% in the test with IL-17F; 96% with IL-21; 94% in the test with IL-23; 99% in the test with IL-17A; 73% in the test with IFNγ; 26% with TNFα. Further, the IC50 against PI3K p110α is 159 nM; in [1] (Fibroblast), 817 nM; against PI3K p110δ, 6 nM; against PI3K p110β, 19 nM; with PC3 (Prostate Tumour) (Homo sapiens, PC-3), 1340 nM; in the test on A549 (Lung Tumour) (Homo sapiens), 229 nM. The IC50 with MCF7 (Breast Tumour) (Homo sapiens) is 145 nM; against PI3K p110γ, 317 nM.

As for `COCCN(C)Cc1cnc2oc3c(N4CCOCC4)nc(-c4cccc5[nH]ccc45)nc3c2c1` [L, [2-(1H-Indol-4-yl)-4-morpholin-4-yl-pyrido[3′,2′:4,5]furo[3,2-d]pyrimidin-8-ylmethyl]-(2-methoxy-ethyl)-methyl-amine], the IC50 on PI3K p110α was 604 nM; against PI3K p110δ it was 21 nM; at PI3K p110β, 111 nM; in the test on PC3 (Prostate Tumour) (Homo sapiens, PC-3), 3240 nM; in the test with A549 (Lung Tumour) (Homo sapiens) it was 1600 nM; with MCF7 (Breast Tumour) (Homo sapiens) it was 119 nM. Moreover, inhibition on PI3K p110γ was half-maximal at 1820 nM (IC50).

Regarding `c1cc(-c2cnc3oc4c(N5CCOCC5)nc(-c5cccc6[nH]ccc56)nc4c3c2)c2cc[nH]c2c1` [E, 2,8-Bis-(1H-indol-4-yl)-4-morpholin-4-yl-pyrido[3′,2′:4,5]furo[3,2-d]pyrimidine], the 50% inhibitory concentration (IC50) came out at 88 nM against PI3K p110α, 7 nM against PI3K p110δ, 69 nM against PI3K p110β and 627 nM on PI3K p110γ.
